Reference: publication PMC10728902, “β-L-Arabinofurano-cyclitol Aziridines Are Covalent Broad-Spectrum Inhibitors and Activity-Based Probes for Retaining β-L-Arabinofuranosidases” (ACS Chemical Biology, 2023)
Where two headings read alike, the source gives them in different places.

Legend:
rHypBA1 = molecular target: T1, rHypBA1 (Bifidobacterium longum, UniProt E8MGH8); experiment: inactivation kinetics, residual hydrolysis of 4-nitrophenyl beta-L-arabinofuranoside, A405; format: biochemical
T1 construct: gene hypBA1; recombinant; 74 kDa; produced by published procedures
T1 sequence (E8MGH8 1-658): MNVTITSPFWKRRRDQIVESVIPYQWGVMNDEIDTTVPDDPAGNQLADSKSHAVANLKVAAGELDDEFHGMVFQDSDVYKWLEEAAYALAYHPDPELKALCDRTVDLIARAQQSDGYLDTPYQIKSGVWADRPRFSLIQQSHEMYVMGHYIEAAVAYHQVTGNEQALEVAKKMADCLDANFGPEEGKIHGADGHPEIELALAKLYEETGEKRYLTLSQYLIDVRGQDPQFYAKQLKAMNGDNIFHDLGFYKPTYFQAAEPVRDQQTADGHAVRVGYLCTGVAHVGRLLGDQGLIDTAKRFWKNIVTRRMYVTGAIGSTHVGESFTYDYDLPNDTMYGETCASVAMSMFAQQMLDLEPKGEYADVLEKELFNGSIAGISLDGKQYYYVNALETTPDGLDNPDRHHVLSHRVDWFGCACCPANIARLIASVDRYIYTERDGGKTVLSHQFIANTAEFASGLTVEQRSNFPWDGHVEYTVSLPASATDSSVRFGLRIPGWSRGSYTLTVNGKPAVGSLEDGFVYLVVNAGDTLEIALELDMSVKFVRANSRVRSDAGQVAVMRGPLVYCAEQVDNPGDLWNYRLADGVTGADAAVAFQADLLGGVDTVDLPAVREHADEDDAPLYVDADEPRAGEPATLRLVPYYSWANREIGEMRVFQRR
Description: inactivation kinetics, residual hydrolysis of 4-nitrophenyl beta-L-arabinofuranoside, A405 on rHypBA1

rBtGH146 = molecular target: T2, rBtGH146 (Bacteroides thetaiotaomicron, UniProt Q8AAW3); experiment: as above; format: biochemical
T2 construct: gene BT_0349; recombinant, expressed in E. coli; 92 kDa on gel; produced by published procedures
T2 sequence (Q8AAW3 1-802): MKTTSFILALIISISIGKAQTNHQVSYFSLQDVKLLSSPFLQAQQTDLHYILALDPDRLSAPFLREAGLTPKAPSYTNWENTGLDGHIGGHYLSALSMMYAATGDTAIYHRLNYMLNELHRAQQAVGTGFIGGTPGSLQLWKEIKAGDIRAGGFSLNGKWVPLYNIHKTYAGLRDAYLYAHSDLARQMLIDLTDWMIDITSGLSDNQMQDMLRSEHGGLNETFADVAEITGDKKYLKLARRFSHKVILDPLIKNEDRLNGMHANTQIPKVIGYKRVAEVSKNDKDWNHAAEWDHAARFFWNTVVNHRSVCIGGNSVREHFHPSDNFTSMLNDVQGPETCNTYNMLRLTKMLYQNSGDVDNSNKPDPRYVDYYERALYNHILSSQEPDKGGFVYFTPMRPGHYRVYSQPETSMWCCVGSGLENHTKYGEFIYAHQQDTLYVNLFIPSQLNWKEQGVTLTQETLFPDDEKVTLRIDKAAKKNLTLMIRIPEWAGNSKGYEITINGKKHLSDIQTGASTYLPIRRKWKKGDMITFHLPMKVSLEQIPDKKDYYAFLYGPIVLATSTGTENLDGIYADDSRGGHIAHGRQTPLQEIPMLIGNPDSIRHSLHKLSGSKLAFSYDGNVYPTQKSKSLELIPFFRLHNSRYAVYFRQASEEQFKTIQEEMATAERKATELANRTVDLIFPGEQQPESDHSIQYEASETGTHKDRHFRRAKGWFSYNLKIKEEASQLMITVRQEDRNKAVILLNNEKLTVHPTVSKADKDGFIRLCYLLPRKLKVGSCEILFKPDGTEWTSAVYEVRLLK
Description: inactivation kinetics, residual hydrolysis of 4-nitrophenyl beta-L-arabinofuranoside, A405 on rBtGH146

[1] = read-out: rBtGH146 / KI, covalent, time-dependent, pH 7.5 HEPES, 200 mM NaCl, 1 mM DTT, 37 °C

With `NCCCCCCCCN1[C@@H]2[C@H](O)[C@@H](O)[C@H](CO)[C@@H]21` (stereo partly drawn) [compound 7, aziridine 7] the KI (inactivation) (rHypBA1; read-out: rHypBA1 / KI, covalent, time-dependent, pH 4.5 acetate, 1 mM DTT, 37 °C) was 280 ± 90 µM and the KI (inactivation) (rBtGH146; [1]) was 190 ± 20 µM.
Compound `OC[C@H]1[C@H](O)[C@@H](O)[C@H]2N[C@@H]12` [compound 2, β-L-arabinofuranosyl cyclophellitol aziridine] has a kinact/KI (rHypBA1) greater than 4200 M⁻¹ s⁻¹ and a KI (inactivation) (rBtGH146; covalent, time-dependent, pH 7.5 HEPES, 200 mM NaCl, 1 mM DTT, 37 °C, read-out: rBtGH146 / KI) of 350 ± 40 µM.
For `CN1C(=CC=CC=CC2=[N+](CCCCCC(=O)NCCCCCCCCOC[C@H]3[C@H](O)[C@@H](O)[C@H]4O[C@@H]34)c3ccccc3C2(C)C)C(C)(C)c2ccccc21` [compound 4, Cy5-tagged epoxide ABP 4], the kinact/KI (rHypBA1) was less than 0.1 M⁻¹ s⁻¹ and the KI (inactivation) (rBtGH146; [1]) was 140 ± 10 µM.
